# Where two headings read alike, the source gives them in different places.
# Columns and labels:
# hNT-R2 [1] = target: T1, hNT-R2 (Homo sapiens, UniProt O95665); test: inositol phosphate (IP3) production in CHO-2076.62 (hNT-R2) line; format: cell-based
# Text: The CHO-2076.62 (hNT-R2) line was used to study the signalization mechanisms involved.
# hNT-R2 [2] = target: T1, hNT-R2; test: intracellular Ca^2+ concentration in CHO-2076.62 (hNT-R2) line; format: cell-based; details: same response in the absence of extracellular calcium
# Text: In principle, this increase in the concentration of intracellular calcium ions is due to the release of internal reservoirs and not to the influx of extracellular calcium since the same response was found in the absence of extracellular calcium.
# hNT-R2 [3] = target: T1, hNT-R2; test: microphysiometry (Cytosensor) with CHO 2076.62 (hNT-R2) cells; format: cell-based
# Method: The microphysiometry experiments were carried out with the Cytosensor Microphysiometer (Molecular Devices, Menlo Park, Calif.). Each chamber of the instrument containing 3×10^5 cells was perfused with DMEM medium (Sigma, St. Louis, Mo.) containing 40 mM NaCl at 37° C. The rate of acidification was measured every 60 seconds (flowrate […]). 15-second injections of agonists were carried out. For the inhibition experiments, cells were exposed to the antagonists for 30 minutes before being perfused with the agonist.
# [4] = tested on: hypothermia induced by NT; details: rats; cited from earlier work
# rNT-R2 receptor [5] = target: T2, rNT-R2 receptor (Rattus norvegicus, UniProt Q63384); test: displacement of ^125 I-neurotensin from rNT-R2 expressed in COS cells; format: binding
# T2 construct: rNT-R2 receptor expressed in COS-3 cells after transfection of the cloned cDNA; expressed in transfected cells; vector pSVL-rNT-R2
# T2 sequence (Q63384 1-416): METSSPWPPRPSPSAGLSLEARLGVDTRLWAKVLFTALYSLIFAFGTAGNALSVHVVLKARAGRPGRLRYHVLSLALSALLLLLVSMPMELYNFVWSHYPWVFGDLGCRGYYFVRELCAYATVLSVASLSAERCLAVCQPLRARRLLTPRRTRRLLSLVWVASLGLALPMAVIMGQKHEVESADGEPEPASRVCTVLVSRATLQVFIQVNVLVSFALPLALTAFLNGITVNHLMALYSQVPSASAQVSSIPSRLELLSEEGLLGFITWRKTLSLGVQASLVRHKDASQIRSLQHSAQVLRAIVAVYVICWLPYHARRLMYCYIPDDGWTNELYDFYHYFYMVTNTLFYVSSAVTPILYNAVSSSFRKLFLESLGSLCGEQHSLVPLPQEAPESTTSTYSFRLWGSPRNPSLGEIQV
# Method: BSA (bovine serum albumin), PMSF (phenylmethylsulphonyl fluoride) and 1,10-phenanthroline are marketed by Sigma. […] Levocabastine was obtained from Janssen Pharmaceutica.
# (§1) The pharmacological characterization was carried out using […] cells transfected with pSVL-rNT-R2 recombinant vector. Three days after transfection, the cell monolayers were washed twice with 50 mM Tris-HCl pH 7.5, 0.1% BSA, 0.1% NaN3, 1 mM 1,10-phenanthroline (binding buffer) before binding to the radioligand.
# After incubation for one hour at room temperature, the medium was aspirated and the cell monolayers were washed twice with the incubation buffer. Finally, the cells were solubilized with 1 ml of 1N NaOH and the bound radioactivity was evaluated.
# cloned receptor = details: cited from earlier work
# analgesia induced by NT [6] = details: mice; cited from earlier work
# [7] = tested on: hypothermia induced by NT; details: mice; cited from earlier work
# analgesia induced by NT [8] = details: rats; cited from earlier work
# HT29 cells = details: antagonism of neurotensin effect in vitro, read-out: IC50, formation of IP1 in HT29 cells; cited from earlier work
# [9] = tested on: release of acetylcholine in rat striatum; details: cited from earlier work
# NT-1R = details: CHO cells transfected with NT-1R; cited from earlier work
# rotation in mice = details: cited from earlier work
# type-1 receptor = details: cited from earlier work
# [10] = tested on: untransfected cells, or cells transfected with the DNA vector alone; test: binding of radiolabelled neurotensin to untransfected or vector-transfected COS cells
# rNT-R2 receptor [11] = target: T2, rNT-R2 receptor; test: saturation binding of ^125 I-neurotensin to rNT-R2 expressed in COS cells; details: Scatchard analysis
# Method: BSA (bovine serum albumin), PMSF (phenylmethylsulphonyl fluoride) and 1,10-phenanthroline are marketed by Sigma. The selective, non-peptide antagonist SR 48692 was synthesized by Sanofi Recherche, France. Levocabastine was obtained from Janssen Pharmaceutica.
# as §1
# Saturation experiments were carried out in 1 ml of binding buffer containing ^125 I-neurotensin over a range from 0.05 to 14.5 nM. After incubation for one hour at room temperature, the medium was aspirated and the cell monolayers were washed twice with the incubation buffer. Finally, the cells were solubilized with 1 ml of 1N NaOH and the bound radioactivity was evaluated. The non-specific binding was defined as being the binding in the presence of a (500-fold) excess of unlabelled ligand and, under these conditions, was less than 1% of the total radioactivity.
# [12] = 0.2 nM ^125 I-neurotensin, rNT-R2 in COS cells, read-out: IC50 (apparent), competition with ^125 I-neurotensin
# [13] = binding with the type-1 receptor
# T1 sequence (O95665 whole entry A54V): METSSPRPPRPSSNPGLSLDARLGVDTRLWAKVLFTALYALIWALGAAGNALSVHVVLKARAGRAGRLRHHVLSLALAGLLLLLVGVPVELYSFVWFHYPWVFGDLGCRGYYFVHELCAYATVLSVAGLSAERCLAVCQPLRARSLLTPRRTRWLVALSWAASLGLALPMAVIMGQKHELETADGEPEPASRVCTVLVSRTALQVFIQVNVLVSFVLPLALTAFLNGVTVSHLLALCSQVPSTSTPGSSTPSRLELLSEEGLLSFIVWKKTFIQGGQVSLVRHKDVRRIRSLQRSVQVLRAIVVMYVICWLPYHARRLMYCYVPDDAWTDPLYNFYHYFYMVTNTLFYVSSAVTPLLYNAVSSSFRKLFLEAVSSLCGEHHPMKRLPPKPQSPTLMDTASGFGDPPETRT
compound,measurement,setting,value
COc1cccc(OC)c1-c1cc(C(=O)NC2(C(=O)O)C3CC4CC(C3)CC2C4)nn1-c1ccc(C(=O)N(C)CCCN(C)C)cc1C(C)C (centres unmarked) [SR142948],increase in IP3,hNT-R2 [1],slight and transient (20-second) increase
same,intracellular concentration of Ca^2+ response,hNT-R2 [2],significant response
"COc1cccc(OC)c1-c1cc(C(=O)NC2(C(=O)O)C3CC4CC(C3)CC2C4)nn1-c1ccnc2cc(Cl)ccc12 (centres unmarked) [SR 48692, {2-[(1-(7-chloro-4-quinolinyl)-5-(2,6-di-methoxyphenyl)pyrazol-3-yl)carbonylamino]tricyclo-(3.3.1.1.3.7)decane-2-carboxylic} acid]",inhibition of the agonist effect of SR142948,"hNT-R2 [3]; CHO 2076.62 (hNT-R2), SR48692 at doses at which there is no agonist effect",antagonized
same,relative effectiveness at inhibiting the effect of SR142948,"hNT-R2 [3]; inhibition curves, SR48692 versus neurotensin",more effective than neurotensin
same,effect on hypothermia induced by NT,[4],insensitive
same,intracellular concentration of Ca^2+ response,hNT-R2 [2],significant response
same,IC50,rNT-R2 receptor [5]; [12],22.5 nM
same,inhibition of the binding of NT to the cloned receptor,cloned receptor,inhibits the binding of NT to the cloned receptor
same,effect on analgesia induced by NT,analgesia induced by NT [6],insensitive
same,effect on hypothermia induced by NT,[7],insensitive
same,effect on analgesia induced by NT,analgesia induced by NT [8],insensitive
"COc1cccc(OC)c1-c1cc(C(=O)NC2(C(=O)O)C3CC4CC(C3)CC2C4)nn1-c1ccc(C(=O)N(C)CCCN(C)C)cc1C(C)C.Cl (centres unmarked) [SR 142948 A, 2-{(5-(2,6-dimethoxyphenyl)-1-(4-(N-(3-dimethylamino-propyl)-N-methylcarbamoyl)-2-isopropylphenyl)-1H-pyrazole-3-carbonyl)amino}adamantane-2-carboxylic acid hydrochloride]",IC50,HT29 cells,3.9 nM
same,effect on hypothermia induced by NT,[4],antagonizes
same,antagonism of neurotensin effect: release of acetylcholine,[9],antagonizes
same,antagonism of neurotensin mobilization of intracellular calcium ions,NT-1R,antagonizes
same,antagonism of neurotensin effect: rotation,rotation in mice,antagonizes
same,displacement of [^3 H]-SR 48692,type-1 receptor; [13],completely displaces
same,displacement of [^125 I]-neurotensin,type-1 receptor; [13],completely displaces
same,affinity,type-1 receptor; type-1 receptor (Gully et al.),of the order of a nanomole
same,effect on analgesia induced by NT,analgesia induced by NT [6],antagonizes
same,effect on hypothermia induced by NT,[7],antagonizes
same,effect on analgesia induced by NT,analgesia induced by NT [8],antagonizes
C[C@@H]1CN([C@H]2CC[C@](C#N)(c3ccc(F)cc3)CC2)CC[C@]1(C(=O)O)c1ccccc1 [levocabastine],IC50,rNT-R2 receptor [5],10 nM
^125 I-neurotensin: ^125 I-[Tyr^3 ]-labelled neurotensin marketed by NEN,binding to untransfected cells or cells transfected with vector alone,[10],did not bind
same,binding capacity (Bmax),rNT-R2 receptor [11],"180,000±3000 sites per cell"
"neuromedin N: ligand related to neurotensin, used as competitor (IPYIL; Neuromedin N; UniProt P30990 144-148, looked up)",IC50,rNT-R2 receptor [5]; [12],5.1 nM
